This is an account of results in patent US20060153861A1, “BCR-ABL imatinib resistance-associated peptides and methods of use thereof” (priority 2004, published 2006).

For assay [1], the system named is T cells from HLA A0201 donors challenged with peptide-pulsed T2 cells. Description: Gamma interferon ELISPOT of T cells after in vitro stimulation with peptide. Format: cell-based, human. The conditions noted are these: for heteroclitic response (ELISPOT) / IFN-γ production (ELISPOT): CD3+ T cells from HLA A0201 donors; for heteroclitic response (ELISPOT): FIGS. 8 and 9; for recognition of the native sequence by T cells elicited with the peptide / immune response (IFN-gamma secretion, ELISPOT) / immune response as gamma-IFN secretion by CD3+ T cells: healthy HLA A0201 donors; for recognition of the native sequence by T cells elicited with the peptide: T2 pulsed with native peptide; for immune response (IFN-gamma secretion, ELISPOT): second or third round of peptide stimulation, peptide-pulsed T2 targets; for immune response as gamma-IFN secretion by CD3+ T cells: b2a2-derived peptides, FIG. 4; for IFN-γ production (ELISPOT): imatinib resistance-associated peptides, two or three stimulations.

Assay [2] deals with T2 cells pulsed with peptide. Description: Chromium-51 release cytotoxicity assay with peptide-stimulated T cells. As to conditions: for killing of cells expressing the native peptide: T cell lines after several stimulations with the heteroclitic peptide; for killing of T2 cells pulsed with the heteroclitic peptide: T cell lines after several stimulations, no lysis of T2 without peptide or with control peptide; for killing of T2 cells pulsed with kinase mutant sequence peptides: T cells generated by several stimulations with the peptide, not with control peptide or no peptide. Type of assay: cell-based, human. As to the method:
T lymphocytes were isolated from the same donors by use of negative selection by depletion with an anti-CD11b, anti-CD56 and CD19 MAb (Miltenyi, CA). A total of 1×10^6 pure T lymphocytes were cultured with 1×10^5 autologous DC in RPMI 1640 medium supplemented with 5% heat-inactivated human autologous plasma with bcr-abl synthetic peptides at a concentration of 10 μg/mL and β2 microglobulin at 2 μg/ml in 24-well plates in the presence of 5-10 ng/mL recombinant human IL-7 (Genzyme) and 0.1 ng/ml IL-12. After culture for 3 days 20 U/ml of IL-2 was added. After 10 days, 1×10^6 cells were stimulated again by adding 2×10^5 autologous, magnetically isolated CD14^+ monocytes together with 10 ng/ml of IL-7 and 20 U/ml IL-2 and peptide at a concentration of […]. In some cases, as indicated, after culture for another 7 days, the cells were stimulated a third time, in the same manner. After the second or third stimulation, CD8 T cells were magnetically isolated and cytotoxicity and gamma-IFN (interferon) secretion of these cells was then examined.
The presence of specific CTLs was measured in a standard 4 h-chromium release assay as follows. 4×10^6 targets were labeled with 300 μCi of Na2 ^51CrO+ (NEN Life Science Products, Inc. Boston, Mass.) for 1 hour at 37° C. After washing, cells at 2×10^6/ml concentration were incubated with or without synthetic peptides at a concentration of 10 μg/ml for 2 h at 20° C. in presence of β2 microglobulin at 3 μg/ml. After washing by centrifugation, target cells were resuspended in complete media at 5×10^4 cells per ml and plated in a 96 well U-bottom plate (Becton Dickinson®, NY) at 5×10^3 cells per well with effector cells at effector to target (E/T) ratios ranging from 100:1 to 10:1. Plates were incubated for 5 hours at 37° C. in 5% CO2. Supernatant fluids were harvested and radioactivity was measured -in a gamma counter. Percent specific lysis was determined from the following formula: 100× [(experimental release−spontaneous release)/(maximum release−spontaneous release)]. Maximum release was determined by lysis of targets in 2.5% Triton X-100.
In order to determine whether the in vitro-generated T cells were capable of cytolysis, T cell lines obtained after several stimulations with p210C and b2a2A3 were assayed by chromium-51 release assays using peptide pulsed target cell lines.

Assay [3] addresses T1, HLA A0201 molecules (Homo sapiens, UniProt P04439, D140Y/D185E/D98H/E176V/E277Q/G131W/G231S/I119V/I121R/I166T/I218V/L300P/L318F/N151K/N90K/P208A/P217A/Q86G/Q94H/R138H/R169H/T345S).
T1 construct: endogenous in cells; host or cells: T2 (174xCEM.T2) human cell line
Put plainly: T2 assay for peptide binding to HLA A0201 molecules. As to conditions: T2 cells, FIG. 1. Here is the method:
(§1) T2 cells (TAP-, HLA-A0201^+) were incubated overnight at 27° C. at a concentration of 1×10^6 cells/ml in FCS-free RPMI medium supplemented with 5 μg/ml human β2microglobulin (Sigma, St Louis, Mo.) in the absence (negative control) or presence of either a positive reference tyrosinase peptide or test peptides at various final concentrations (50, 10, 1, and 0.1 μg/ml). Following a 4-hour incubation with 5 μg/ml brefeldin A (Sigma), T2 cells were labeled for 30 minutes at 4° C. with a saturating concentration of anti-HLA-A2.1 (BB7.2) monoclonal antibody (mAb), then washed twice. The cells were then incubated for 30 minutes at 4° C. with a saturating concentration of FITC-conjugated goat IgG F(ab′)2 anti-mouse Ig (Caltag, South San Francisco, Calif.), washed twice, fixed in PBS/1% paraformaldehyde and analyzed using a FACS Calibur® cytofluorometer (Becton Dickinson, Immunocytometry systems, San Jose, Calif.).
The mean intensity of fluorescence (MIF) observed for each peptide concentration (after dividing of the MIF observed without peptide) was used as an estimate of peptide binding and expressed as a fluorescence index. Stabilization assays were performed similarly. Following initial evaluation of peptide binding at time 0, cells were washed in RPMI complete medium to remove free peptides and incubated in the continuous presence of 0.5 pg/ml brefeldin-A for 2, 4, 6 or 8 hours. […]

The target of assay [4] is T2, HLA-A0201 molecule on T2 cells (TAP-, HLA-A0201+) (human).
T2 construct: Empty, thermolabile HLA-A0201 on live T2 cells; also called HLA-A2.1
Put plainly: T2 binding and stabilization assay, flow cytometry with BB7.2. Here is the method: as §1, with “HLA-A0201⁺)” for “HLA-A0201^+)”, “1×10⁶” for “1×10^6”, “β₂microglobulin” for “β2microglobulin”
The mean intensity of fluorescence (MIF) observed for each peptide concentration (after dividing of the MIF observed without peptide) was used as an estimate of peptide binding and expressed as a fluorescence index. Stabilization assays were performed similarly. Following initial evaluation of peptide binding at time 0, cells were washed in RPMI complete medium to remove free peptides and incubated in the continuous presence of 0.5 pg/ml brefeldin-A for 2, 4, 6 or 8 hours.
For peptides to be immunogenic, in an MHC class I-restricted context, they require the capacity to bind and stabilize MHC class I molecules on the live cell surface. Since the computer prediction models above have 60-80% predictive accuracy, direct measurement of the strength of the interaction between the peptides and the HLA-A0201 molecule was performed, with a conventional binding and stabilization assay that uses the antigen-transporting deficient (TAP2 negative) HLA-A0201 human T2 cells.
(Flow cytometry measures light scatter and fluorescence of single cells or particles in a stream.)

The target of assay [5] is T2, HLA-A0201 molecule on T2 cells (TAP-, …). Description: T2 assay, referred to in the ELISPOT example.

“YIIIEFMTYV (listed as Homo sapiens) [T3B2]”: the “heteroclitic response (ELISPOT)” value in assay [1] was “stimulated heteroclitic responses”.

“KLGGGQFGV (listed as Homo sapiens) [V2A3]”: the “heteroclitic response (ELISPOT)” value in assay [1] is recorded as “stimulated heteroclitic responses”.

Take “KLLQRPVAV (listed as Homo sapiens) [p210C]”: the “immune responses in CML patients” value in assay [1] (4 patients with chronic phase CML assayed) was “observed in two of the CML patients”. Moreover, the “frequency of CD8+ cells recognizing T2 pulsed with the synthetic peptide” value in assay [1] (CML patient, two rounds of stimulation) is reported as ~400 spot-forming cells (SCF) per 1×10^5 cells. Further, in assay [1], the “recognition of the native sequence by T cells elicited with the peptide” value (“recognition of the native sequence” below) is “able to recognize their respective native sequences”; the “immune response (IFN-gamma secretion, ELISPOT)” value was “most consistent and significant immune-responses”. For the same molecule, in assay [2], the “killing of cells expressing the native peptide” value was “able to recognize and kill cells expressing the native peptide”; the “killing of T2 cells pulsed with the heteroclitic peptide” value is “able to kill T2 cells pulsed with the heteroclitic peptides”.

“IIIEFMTYV (listed as Homo sapiens) [T3A2]”: in assay [2], the “killing of T2 cells pulsed with kinase mutant sequence peptides” value is “able to kill T2 cells pulsed with specific kinase mutant sequence peptides”.

Turning to “YLINKVEAL (listed as Homo sapiens) [b2a2 A5]”, the “immune response as gamma-IFN secretion by CD3+ T cells” value (“immune response … by CD3+ T cells” below) in assay [1] is “significant immune respose”.

As to “KQSSKALQV (listed as Homo sapiens) [p210A]”, the “immune response (IFN-gamma secretion, ELISPOT)” value in assay [1] was “no immune response”.

Turning to “YLGGGQFGV (listed as Homo sapiens) [V2A2]”, in assay [1], the “IFN-γ production (ELISPOT)” value is given as “greater IFN-γ production following a second stimulation” and the “recognition of the native sequence” value is recorded as “recognized native sequences”.

Consider “TLFKQSSKV (listed as Homo sapiens) [p210D]”, for which, in assay [1], the “immune response (IFN-gamma secretion, ELISPOT)” value was “produced an immune response in some donors tested”.

For “KLSSKALQV (listed as Homo sapiens) [p210B]”, the “immune response (IFN-gamma secretion, ELISPOT)” value in assay [1] is listed as “no immune response”.

Regarding “KVYEGVWKV (listed as Homo sapiens) [K2A3]”, the “heteroclitic response (ELISPOT)” value in assay [1] is “stimulated heteroclitic responses”. Further, in assay [2], the “killing of T2 cells pulsed with kinase mutant sequence peptides” value is “able to kill T2 cells pulsed with specific kinase mutant sequence peptides”.

With “YLINKEEAL (listed as Homo sapiens) [b2a2 A3]”, in assay [1], the “recognition of the native sequence” value was “recognized the native sequence as well” and the “immune response … by CD3+ T cells” value is given as “significant immune respose”. Further, in assay [2], the “killing of cells expressing the native peptide” value is “able to recognize and kill cells expressing the native peptide”; the “killing of T2 cells pulsed with the heteroclitic peptide” value was “able to kill T2 cells pulsed with the heteroclitic peptides”.

Consider “KLGGGQYGV (listed as Homo sapiens) [V2A1]”, for which the “IFN-γ production (ELISPOT)” value in assay [1] is “greater IFN-γ was produced following a third stimulation”.

On to “SSKALQRPV (listed as Homo sapiens) [CMLA2, native b3a2 breakpoint peptide, previously described]”, for which the “binding to HLA A0201 in the T2 assay” value in assay [3] was “weak MHC binder”.

Consider “YLFKQSSKV (listed as Homo sapiens) [p210E]”, for which the “immune response (IFN-gamma secretion, ELISPOT)” value in assay [1] is reported as “produced an immune response in some donors tested”.

Take “YLINKEEAV (listed as Homo sapiens) [b2a2 A4]”: the “immune response … by CD3+ T cells” value in assay [1] is reported as “significant immune respose”.

In the case of YLINKEEAL [b2a2 A3 (analogue)], the binding result in assay [4] is reported as “binds”.

With YLINKVEAL [b2a2 A5 (analogue)], in assay [4], the binding result is recorded as “binds”.

YLINKEEAV [b2a2 A4 (analogue)]: the binding result in assay [4] was “binds”.

For KALQRPVAS [p210Cn native], the binding result in assay [4] is “binds”.

Take SSKALQRPV [CMLA2 native]: the binding result in assay [5] is “binds”.
